Test results reported in patent US20200231562A1, “NOVEL MACROLIDE ANTIBIOTICS” (HELMHOLTZ-ZENTRUM FÜR INFEKTIONSFORSCHUNG GMBH, priority 2014, published 2020).
In brackets after ≈: the same amount, converted by molar mass. Where two headings read alike, the source gives them in different places.

Assays:
Assay type in all cases: cell-based
[1] = system: Bacillus subtilis ATCC 6633; assay: Agar diffusion assay; conditions: ATCC6633, 50 μL of 0.5 mg in 1 mL methanol per 7 mm hole, n.a. = no activity observed, read-out: diameter of inhibition zone
Method: (§1) Antimicrobial activities of the gulmirecins were determined in a primary screen against Bacillus subtilis ATCC 6633, Staphylococcus aureus SG511, Staphylococcus auricularis DSM 20609, Mycobacterium vaccae IMET 10670, Pseudomonas aeruginosa K799/61, Escherichia coli SG458, Sporobolomyces salmonicolor SBUG 549, Candida albicans ATCC14053 and Penicillium notatum JP 36. To this end, holes with 7 mm diameter were aseptically punched in the respective agar medium. Subsequently, the agar plates were inoculated with the test organisms. 0.5 mg of every test compound was dissolved in 1 mL of methanol, and 50 μL of this solution was transferred to a single hole. Ciprofloxacin and amphotericin B served as positive controls. After evaporation of the solvent, the agar plates were incubated depending on the growth conditions of the test organisms. […] The test results are shown in Table 6 below, wherein the given values represent the diameters of the respective inhibition zone in the agar diffusion assay.

[2] = system: Mycobacterium vaccae IMET 10670; assay: Agar diffusion assay; conditions: Mycolicibacterium vaccae, IMET10670; 50 μL of 0.5 mg in 1 mL methanol per 7 mm hole; n.a. = no activity observed; read-out: diameter of inhibition zone
Method: as §1

S. auricularis A = assay: Bouillon dilution assay (MIC90); conditions: Staphylococcus auricularis, tryptic soy broth, 37° C., 16 h
Method: (§2) Before incubation, 3 was added in decreasing concentrations ([…] to 12.5 μg/ml). After incubation, the OD600 was measured. The experiment was run in triplicate. Ciprofloxacin was used as a positive control.

[3] = system: methicillin-resistant S. aureus (MRSA); assay: Bouillon dilution assay (MIC90); conditions: Staphylococcus aureus, tryptic soy broth, 37° C., 16 h
Method: as §2

Bacillus subtilis DSM 10 = assay: MIC by microbroth dilution; conditions: Bacillus subtilis, DSM10, 16 h, 30° C., n.i. = no inhibition up to 67 μg/ml, read-out: MIC
In short: (§3)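 Read-out: A600 after 16 h at 30° C. with shaking; MIC from sigmoidal fit. Cells from overnight EBS cultures set to OD600 0.01, compound (in DMSO) serially diluted, duplicates.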

[4] = system: Nocardioides simplex DSM 20130; assay: MIC by microbroth dilution; conditions: Pimelobacter simplex, DSM20130, 16 h, 30° C., n.i. = no inhibition up to 67 μg/ml, read-out: MIC
In short: as §3

[5] = system: Pseudomonas aeruginosa DSM 50071; assay: MIC by microbroth dilution; conditions: 16 h, 30° C., n.i. = no inhibition up to 67 μg/ml
In short: as §3

[6] = system: Staphylococcus aureus DSM 346; assay: MIC by microbroth dilution; conditions: Staphylococcus aureus, DSM346, 16 h, 30° C., n.i. = no inhibition up to 67 μg/ml, read-out: MIC
In short: as §3

[7] = system: Staphylococcus aureus Mu50 (MRSA/VRSA) ATCC 700699; assay: MIC by microbroth dilution; conditions: 16 h, 30° C., n.i. = no inhibition up to 67 μg/ml
In short: as §3

[8] = system: Staphylococcus aureus N315 (MRSA); assay: MIC by microbroth dilution; conditions: 16 h, 30° C., n.i. = no inhibition up to 67 μg/ml
In short: as §3

[9] = system: Staphylococcus aureus Newman; assay: MIC by microbroth dilution; conditions: 16 h, 30° C., n.i. = no inhibition up to 67 μg/ml
In short: as §3

[10] = system: Chinese hamster ovary CHO-K1 cells (ACC-110); assay: Cytotoxicity (MTT) assay, antiproliferative activity; conditions: Cricetulus griseus, 120 h, CHO-K1, 5 d incubation
Method: (§4) Half maximal inhibitory concentrations (IC50) in μg/ml of disciformycin A (1) and disciformycin B (2) for inhibiting the proliferative activity of human HCT-116 colon carcinoma cells, mouse fibroblast cells L929, and Chinese hamster ovary CHO-K1 cells were determined. Cells were seeded at 6×10^3 cells per well of 96-well plates (Corning CellBind®) in complete medium (180 μl) and directly treated with disciformycin dissolved in DMSO in serial dilution. The compound was tested in duplicate, as well as the internal solvent control. After 5 d incubation, 5 mg/ml MTT in PBS (20 μL) was added per well and it was further incubated for 2 h at 37° C. The medium was then discarded and cells were washed with PBS (100 μl) before adding 2-propanol/10N HCl (250:1, v/v; 100 μl) in order to dissolve formazan granules. The absorbance at 570 nm was measured using a microplate reader (EL808, Bio-Tek Instruments Inc.). The amount of formazan, i.e. relative absorption, is thereby proportional to the number of actively proliferating cells.

[11] = system: HCT-116 colon carcinoma cells (ACC-581); assay: as above; conditions: Homo sapiens, 120 h, HCT-116, 5 d incubation
Method: as §4

[12] = system: Mouse fibroblast cells L929 (ACC-2); assay: as above; conditions: 120 h, L929, 5 d incubation
Method: as §4

[13] = system: S. aureus Newman in PMA-differentiated human THP-1 cell line (macrophages); assay: Intra-macrophage activity
From the text: The PMA-differentiated human THP-1 cell line (macrophages) was used as cellular host for infection with S. aureus Newman at an MOI (multiplicity of infection) of 10. […] Intracellular bacteria were recovered and serial dilutions were streaked out on CASO-Agar for cfu counting. The reference drug rifampicin reduced the number of intracellular bacteria by ca. 4 logs (at 8×MIC).

| Structure (SMILES) | zone of inhibition at 25 µg/hole [1] | zone of inhibition at 25 µg/hole [2] | MIC90 (S. auricularis A) | MIC90 [3] | MIC (Bacillus subtilis DSM 10) | MIC [4] | MIC [5] | MIC [6] | MIC [7] | MIC ([7]; Staphylococcus aureus, read-out: MIC) | MIC [8] | MIC ([8]; Staphylococcus aureus, MRSA, read-out: MIC) | MIC [9] | MIC ([9]; Staphylococcus aureus, NEWMAN, read-out: MIC) | IC50 [10] | IC50 [11] | IC50 [12] | reduction of the number of intracellular bacteria ([13]; 18 h, MOI 10, cfu counting, tested at 1×, 4× and 8×MIC) | cytotoxicity towards THP-1 host cells ([13]; 18 h treatment of infected macrophages) |
| --- | --- | --- | --- | --- | --- | --- | --- | --- | --- | --- | --- | --- | --- | --- | --- | --- | --- | --- | --- |
| C/C=C(/C)[C@H]1C/C=C(\C)[C@@H](O[C@H]2O[C@H](CO)[C@@H](O)[C@@H]2O)[C@H](OC(=O)CC(C)C)C(=O)C[C@@H](O)[C@H](C)C(=O)O1 [Compound 3, gulmirecin A] | 35 mm | 17 mm | 22.5 µM (≈ 12.2 µg/mL) | 23.1 µM (≈ 12.5 µg/mL) | – | – | – | – | – | – | – | – | – | – | – | – | – | – | – |
| C/C=C(/C)[C@H]1C/C=C(\C)[C@@H](O[C@H]2O[C@H](CO)[C@@H](O)[C@@H]2O)[C@H](OC(=O)CC(C)C)C(=O)C/C=C(/C)C(=O)O1 [Compound 1, disciformycin A] | – | – | – | – | 4.2 µg/mL (≈ 8.01 µM) | 33.3 µg/mL (≈ 63.5 µM) | n.i. | 16.6 µg/mL (≈ 31.6 µM) | 2.0 µg/mL (≈ 3.81 µM) | 2 µg/mL (≈ 3.81 µM) | 8.0 µg/mL (≈ 15.2 µM) | 8 µg/mL (≈ 15.2 µM) | 8.0 µg/mL (≈ 15.2 µM) | 8 µg/mL (≈ 15.2 µM) | 16.6 µg/mL (≈ 31.6 µM) | 13 µg/mL (≈ 24.8 µM) | 29 µg/mL (≈ 55.3 µM) | 3 logs | without causing any apparent cytotoxicity |
